Experimental data reported in patent US11168059B2, “Amino sulfonyl compounds” (CV6 Therapeutics (NI) Limited, priority 2016, dated 2021).

Experiments:
[1] = tested on: colorectal (HCT116), breast (MCF-7) and non-small cell lung (H1299, A549, H358 and H460) cell line models; assay: Colony forming assay; assay type: cell-based; details: FUdR between 0.5 and 2.5 μmol/L; all cell lines evaluated
Method: Colony forming assay showing the ability of colon (SW620, HCT116), non-small cell lung (A549, H460, H1299 and H358) and breast (MCF7) cancer cells to survive and proliferate following transient 24 hour exposure to test compounds, FUdR and combinations are determined. Specifically, cells are seeded at densities between 50 and 100 cells/well in 24-well plates. Twenty-four hours later, cells are treated with increasing concentrations of a rtest compound, a fixed dose of FUdR and combinations of these. After 24 hours, drug is removed, cells are rinsed and allowed to outgrow for 10-14 days. At the conclusion of the outgrowth, cells are fixed in 60% ice cold methanol and stained with 0.1% crystal violet, scanned and counted. Data is presented as percentage of untreated controls (mean±SD). Fraction affected and combination indexes are calculated according to the method of Chou and Talalay where <1 is indicative of a synergistic drug interaction.
Colony forming assays are performed to evaluate the effectiveness of test compounds alone and in combination with the fluoropyrimidine thymidylate synthase (TS) inhibitor fluorodeoxyuridine (FUdR) at reducing cancer cell viability in colorectal (HCT116), breast (MCF-7) and non-small cell lung (H1299, A549, H358 and H460) cell line models. […]

[2] = molecular target: T1, recombinant human deoxyuridine nucleotidohydrolase (dUTPase) (Homo sapiens, UniProt P33316); assay: dUTPase inhibition, fluorescence-based DNA polymerase assay; assay type: biochemical; details: for % relative inhibition vs. positive control: mean over three concentrations, typically 100, 50 and 25 μmol/L, relative to in-run positive control
T1 construct: made in house
T1 sequence (P33316 1-164 isoform P33316-2): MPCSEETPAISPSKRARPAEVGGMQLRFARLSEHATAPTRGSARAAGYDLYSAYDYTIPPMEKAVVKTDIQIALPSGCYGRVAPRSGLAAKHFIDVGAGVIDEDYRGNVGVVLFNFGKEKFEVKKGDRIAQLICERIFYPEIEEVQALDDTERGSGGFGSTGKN
Text: Recombinant human deoxyuridine nucleotidohydrolase (dUTPase) is expressed and purified as described in Ladner R D, Carr S A, Huddleston M J, McNulty D E, Caradonna S J. J Biol Chem. 1996 Mar. 29; 271(13):7752-7. All drugs stocks are aliquoted and diluted as appropriate prior to use. The oligonucelotide primer, templates and fluorophore- and quencher-labeled detection probes are synthesized by Integrated DNA Technologies (Coralville, Iowa), subjected to polyacrylamide gel electrophoresis purification and reconstituted in Omnipur sterile nuclease-free water (EMD Chemicals USA, Gibbstown N.J.) at a stock concentration of 100 μmol/L. The two non-emissive (dark) quenching molecules incorporated into the detection probes include the Iowa black fluorescein quencher (IBFQ; absorption max 531 nm) and ZEN (non-abbreviation; absorption max 532 nm). The fluorescent label utilized is 6-FAM (5′-carboxyfluorescein; excitation max.=494 nm, emission max.=520 nm). Probes are further diluted to a working stock of 10 μmol/L and aliquoted to avoid repeated freeze/thaw cycles. AmpliTaq Gold DNA Polymerase, GeneAmp 10×PCR Buffer 2, MgCl2 and MicroAmp Optical 96-well Reaction Plates are purchased from Applied Biosystems (Carlsbad, Calif.). dNTPs are purchased individually at stock concentrations of 100 mmol/L from New England Biolabs at HPLC-certified >99% purity (Ipswich, Mass.).
Reaction mixtures contained primer, probe and template at an equimolar final concentration of 0.4 μmol/L. Magnesium chloride (MgCl2) is included at a final concentration of 2 mmol/L. Non-limiting dNTPs are included in the reaction mix in excess at a final concentration of 100 μmol/L (dUTP/dTTP is excluded). AmpliTaq Gold DNA polymerase is added at 0.875 U/reaction, 2.5 μl of 10×PCR buffer 2 added and nuclease-free ddH2O added to a final reaction volume of 25 μl. For dUTP inhibition analysis, the volume of ddH2O is further modified to accommodate an additional 1 μl of dUTPase (10 ng/μl) and 1 μl of inhibitor or DMSO control. Thermal profiling and fluorescence detection is performed using a customized thermal program on board a Roche Lightcycler LC480 Instrument II. For analysis of dNTPs, the thermal profile consisted of an 8 min 37° C. step followed by a 10 min 95° C. step to ‘hot-start’ the Taq polymerase and a primer extension time of up to 30 min at 60° C. Raw fluorescence spectra for 6-FAM is measured at specified time intervals to follow assay progression on board a Roche LightCycler 480 Software Version 1.5 and exported and analyzed in Microsoft Excel (Microsoft, Redmond Wash.) and Prism (GraphPad Software, La Jolla Calif.). Fluorescence values for blank reactions (limiting dNTP omitted) are subtracted to give normalized fluorescence units (NFU) to account for background fluorescence.
Test compounds are screened in a fluorescence-based assay. The assay employs a DNA polymerase-based approach utilizing an oligonucleotide template with 3 distinct regions: a 3′ primer binding region, a mid-template dUTP/thymidine triphosphate (TTP) detection region and a 5′ 6-[…] (FAM)-labeled probe binding region that incorporates a black hole quenching moiety. During the reaction, the probe and primer hybridize to the oligonucleotide template to form the template:primer:probe complex. When Taq polymerase binds to the primer in the TPP complex and dUTP is present, successful extension of the nascent strand occurs and the inherent 5′ to 3′ exonuclease activity of Taq polymerase cleaves and displaces the 6-FAM-labeled probe in a 5′ to 3′ direction, releasing the 6-FAM fluorophore from its proximity to the […]. This displacement effectively disrupts the Forster resonance energy transfer (FRET) and the resulting fluorescence detected upon excitation is directly proportional to the amount of the dUTP available in the assay for incorporation. […]

[3] = tested on: colorectal (HCT 116 and SW620) cell line models; assay: MTS growth inhibition assay; assay type: cell-based; details: 5-FU between 0 and 100 μmol/L; both colorectal cancer cell lines
Method: The Cell Titer AQueous MTS assay (Promega) is carried out according to the manufacturers guidelines. […] The combination effect is determined by the combination index (CI) method utilizing Calcusyn software (Biosoft, Ferguson, Mo.). […] CI values <1, synergism; 1-1.2, additive and >1.2, antagonism.
Test compounds are evaluated for their antitumor activity in colorectal cancer cells using the MTS growth inhibition assay. HCT116 and SW620 cells are exposed to increasing concentrations of each agent for 72 hours and growth inhibition is directly compared to vehicle-treated controls. The NSCLC cell lines A549 and H1299 are exposed to increasing concentrations of each agent for 72 hours and growth inhibition is directly compared to vehicle-treated controls.
Simultaneous treatment with increasing concentrations of 5-FU and a test compound at fixed concentrations of 25 μmol/L is determined.

Structure (SMILES) | % relative inhibition vs. positive control [2] | further results
O=c1[nH]c(=O)n([C@H]2C[C@H](O)[C@@H](CO)O2)cc1F [FUdR, fluorodeoxyuridine] | – | colonies formed [1]: dose-dependent decreases in colonies formed
O=C1CCN(C/C=C/CCCNS(=O)(=O)c2ccc(F)c(OCC3CC3)c2)C(=O)N1 [Compound 49a, (E)-3-(cyclopropylmethoxy)-N-(6-(2,4-dioxotetrahydropyrimidin-1(2H)-yl)hex-4-en-1-yl)-4-fluorobenzenesulfonamide] | 151% | –
CC(C)COc1cc(S(=O)(=O)NCCCCCCN2CC(=O)NC2=O)ccc1F [Compound 45b, N-(6-(2,4-dioxoimidazolidin-1-yl)hexyl)-4-fluoro-3-isobutoxybenzenesulfonamide] | 151% | –
CC(C)COc1cc(S(=O)(=O)NCCC/C=C/CN2CCC(=O)NC2=O)ccc1F [Compound 50a, (E)-N-(6-(2,4-dioxotetrahydropyrimidin-1(2H)-yl)hex-4-en-1-yl)-4-fluoro-3-isobutoxybenzenesulfonamide] | 156% | –
O=C1CCN(C/C=C/CCCNS(=O)(=O)c2ccc(F)c(OCC3CC3)c2)C(=O)N1 [Compound 49b, (E)-3-(cyclopropylmethoxy)-N-(6-(2,4-dioxotetrahydropyrimidin-1(2H)-yl)hex-4-en-1-yl)-4-fluorobenzenesulfonamide] | 144% | –
CC(C)COc1cc(S(=O)(=O)NCCC/C=C/CN2CC(=O)NC2=O)ccc1F [Compound 45a, (E)-N-(6-(2,4-dioxoimidazolidin-1-yl)hex-4-en-1-yl)-4-fluoro-3-isobutoxybenzenesulfonamide] | 178% | –
O=C1CN(Cc2ccc(CNS(=O)(=O)c3cccc(OC4CCCC4)c3)cc2)C(=O)N1 [Example 40, 3-(cyclopentyloxy)-N-(4-((2,4-dioxoimidazolidin-1-yl)methyl)benzyl)benzenesulfonamide] | 53% | IC50 [2]: 1400 nM
O=C1CCN(CCOCCCNS(=O)(=O)c2cccc(OCC3CC3)c2)C(=O)N1 [Example 47, 3-(cyclopropylmethoxy)-N-(3-(2-(2,4-dioxotetrahydropyrimidin-1(2H)-yl)ethoxy)propyl) benzenesulfonamide] | 8% | –
CC(C)(NS(=O)(=O)c1cccc(OC2CCCC2)c1)c1ccc(CN2CC(=O)NC2=O)cc1 [Example 41, 3-(cyclopentyloxy)-N-(2-(4-((2,4-dioxoimidazolidin-1-yl)methyl)phenyl)propan-2-yl)benzenesulfonamide] | 249% | IC50 [2]: 300 nM
O=c1[nH]cc(F)c(=O)[nH]1 [Example 5-FU, 5-fluorouracil] | – | growth inhibition [3]: dose-dependent increases in growth inhibition
O=C1CN(CCOCCCNS(=O)(=O)c2cccc(OCC3CC3)c2)C(=O)N1 [Example 42, 3-(cyclopropylmethoxy)-N-(3-(2-(2,4-dioxoimidazolidin-1-yl)ethoxy)propyl)benzenesulfonamide] | 136% | –
O=C1CCN(CCCOCCNS(=O)(=O)c2cccc(OCC3CC3)c2)C(=O)N1 [Example 48, 3-(cyclopropylmethoxy)-N-(2-(3-(2,4-dioxotetrahydropyrimidin-1(2H)-yl)propoxy)ethyl)benzenesulfonamide] | 82% | –
O=C1CN(CCCCCCNS(=O)(=O)c2ccc(F)c(OCC3CC3)c2)C(=O)N1 [Compound 44b, 3-(cyclopropylmethoxy)-N-(6-(2,4-dioxoimidazolidin-1-yl)hexyl)-4-fluorobenzenesulfonamide] | 168% | –
CC(C)COc1cc(S(=O)(=O)NCCCCCCN2CCC(=O)NC2=O)ccc1F [Compound 50b, N-(6-(2,4-dioxotetrahydropyrimidin-1(2H)-yl)hexyl)-4-fluoro-3-isobutoxybenzenesulfonamide] | 141% | –
O=C1CN(C/C=C/CCCNS(=O)(=O)c2cccc(OCC3CC3)c2)C(=O)N1 [Compound 44a, (E)-3-(cyclopropylmethoxy)-N-(6-(2,4-dioxoimidazolidin-1-yl)hex-4-en-1-yl)benzenesulfonamide] | 159% | –
